Assays:
[1] = system: HCMV Towne viral proteins (IE1/2, pp65, UL84, UL44); experiment: Immunoblot of viral protein expression in infected HFFs; assay type: cell-based, human cytomegalovirus; conditions: HCMV Towne MOI of 1 PFU/cell, 72 hpi
Experimental: SDS-polyacrylamide gel electrophoresis and immunoblot analysis: Cell lysates containing equal amount of proteins were mixed with an equal volume of sample buffer (125 mM Tris-HCL, pH 6.8, 4% SDS, 20% glycerol and 5% β-mercaptoethanol) and boiled at 100° C. for 10 min. Denatured proteins were resolved in Tris-glycine polyacrylamide gels (8-10%) and transferred to polyvinylidine difluoride (PVDF) membranes (Bio-Rad Laboratories, Hercules, CA) by electroblotting. Membranes were incubated in blocking solution [5% w/v non-fat dry milk and 0.1% Tween-20 in PBS (PBST)] for 1 h, washed with PBST, and incubated with primary antibodies at 4° C. overnight. Membranes were washed with PBST and incubated with horseradish peroxidase-conjugated secondary antibodies in PBST for 1 h at room temperature. Following washing with PBST, protein bands were visualized by chemiluminescence using SuperSignal West Dura and Pico reagents (Pierce Chemical, Rockford, IL).
Antibodies: The following antibodies were used—Mouse monoclonal anti-HCMV IE1 & IE2 (MAB810, Millipore, Billerica, MA), mouse monoclonal anti-HCMV UL83 (pp65, Vector Laboratories Inc., Burlingame, CA), mouse monoclonal anti-HCMV UL44, mouse monoclonal anti-HCMV UL84, and mouse anti-β-actin anti-mouse IgG (Santa Cruz Biotechnology, Santa Cruz, CA). Horseradish peroxidase (HRP)-conjugated anti-mouse IgG was from GE Healthcare (Waukesha, WI). Horseradish peroxidase (RP)-conjugated anti-rabbit IgG was from Cell Signaling (Beverly, MA).

Epstein Barr Virus (EBV) = experiment: Inhibition of lytic EBV replication in Akata cells, real-time PCR of BALF5; assay type: cell-based; conditions: real-time PCR at 48 hours, NA = Not active
Experimental: Inhibition of lytic Epstein Barr Virus (EBV) replication: Akata cells (0.5×10^6/well of 24-well plate) latently infected with EBV were induced with 100 μg/ml of goat antihuman IgG (Sigma). Compounds and GCV control were added to triplicate wells immediately after the addition of human IgG. Cells were collected 48 hours after lytic induction for DNA quantification. Cellular DNA was purified using Wizard SV Genomic Kit (Promega, Madison, WI). The effect of the compounds on lytic induction of EBV was analyzed by real-time PCR of the EBV DNA polymerase gene, BALF5^38.
Inhibition of other herpesviruses: Inhibition of herpes simplex 1 and 2 (HSV1, HSV2), Epstein Barr virus (EBV) and mouse CMV (MCMV) was tested with the five compounds. Plaque reductions assays were used for HSV1, HSV2 and MCMV. Inhibition of lytic EBV replication was measured by real-time PCR in AKATA cells following IgG induction. Only MLS8554 was active against HSV1, HSV2 and MCMV (Table 2).

in vitro = conditions: human
Experimental: (§1) Cytotoxicity assay: MTT assay was performed as described by manufacturer's instructions (Sigma-Aldrich). Non-infected cells were treated with compounds for 72 h or 10 days (same time points of the antiviral assay), and 20 μL/well of MTT [3-(4, 5-Dimethyl-2-thiazolyl)-2, 5-diphenyl-2H-tetrazolium bromide], 5 mg/mL in phosphate buffered saline (PBS)] was added to each well. After shaking at 150 rpm for 5 min the plates were incubated at 37° C. for 2-3 h. Conversion of yellow solution to dark blue formazan by mitochondrial dehydrogenases of living cells was quantified by measuring absorbance at 560 nm.
(§2) HCMV inhibition was measured by luciferase activity of pp28-recombinant Towne and pp28 GCV-resistant Towne strains of HCMV (72 hpi) and by plaque reduction using HCMV Towne or TB40 (10 days). Viral protein expression was measured by Western blot.

non-infected HFFs = experiment: in vitro
Experimental: as §1, §2

[2] = target: pp28-luciferase Towne HCMV; experiment: Drug combination with GCV, pp28-luciferase Towne, Bliss model; assay type: cell-based, human cytomegalovirus; conditions: combination experiment with GCV, pp28-luciferase; read-out: EC50 (μM) of Compound 2
Experimental: Drug combination and analysis: These experiments were performed as previously reported^40. The combination of GCV and each compound was tested using the pp28-luciferase. Briefly, 2×10^6 HFFs/plate were seeded in 96-well plates and infected with the pp28-luciferase Towne HCMV strain (MOI=1). First, a dose response curve was generated for each drug individually to determine its EC50. Then, drugs were combined at twice their EC50, diluted in DMEM with 4% FBS, followed by serial dilution and added together after infection. Luciferase activity of the combination and each drug individually was quantified at 72 hpi. The combination of letermovir and each of the new compounds was tested by the plaque assay using TB40. The same principle applied in this assay for the drug combination effect, and plaques were counted at 8 dpi. The Bliss model was used to calculate the effect of each drug combination on pp28-luciferase activity and plaque reduction. In this model, drug combination represents the product of two probabilistically independent events as described in the following equation^41.
[formula] Where D is the drug concentration, m is the slope, and EC50 is the effective concentration resulting in 50% virus inhibition. The combined effect of two inhibitors (Fu, fractional unaffected) is computed as the product of individual effects of the two inhibitors, Fu1 and Fu2. If the ratio of observed fold inhibition divided by the expected fold inhibition is greater than 1, the compounds are synergistic. If the ratio is less than 1, the combination is considered antagonistic, and if it equals to 1 the combination is additive.
Pattern of drug combination with GCV and letermovir: The effect of each compound alone or in combination with GCV or letermovir was tested in HCMV-infected HFFs. […] For letermovir and its combination with each of the five compounds the EC50 was determined based on plaque assay. […] All other combinations and Bliss coefficients were measured by pp28- luciferase.

GCV-resistant HCMV Towne = experiment: Plaque reduction assay, GCV-resistant HCMV Towne in HFFs; assay type: cell-based, human cytomegalovirus; conditions: Human betaherpesvirus 5, read-out: EC50—GCVR Towne (μM)

SMILES | viral protein expression by Western blot, in words [1] | EC50 (Epstein Barr Virus (EBV); human gammaherpesvirus 4, IgG induction) [µM] | CC50 (in vitro) [µM] | EC50 (Epstein Barr Virus (EBV); IgG induction) [µM] | CC50 (non-infected HFFs) [µM] | EC50 [2] [µM] | EC50 (GCV-resistant HCMV Towne) [µM]
CCN1CCN(CCCNC(=O)c2ccc3c(c2)sc2nc(-c4ccc(OC)cc4)cn23)CC1 [NFU1827, N-[3-(4-ethylpiperazin-1-yl)propyl]-4-(4-methoxyphenyl)-7-thia-2,5-diazatricyclo [6.4.0.02,6] dodeca-1(8),3,5,9,11-pentaene-10-carboxamide] | reduced the level of both IE1 and IE2 | 1.92 ± 0.1 | 70.9 |  |  |  | 
Nc1c(S(=O)(=O)c2cccs2)c2nc3ccccc3nc2n1Cc1ccccc1 [MLS8091] | Inhibition of all viral proteins |  |  | > 10 | > 250 | 0.57 ± 0.07 | 
CCc1ccc(NC(=O)[C@H](Cc2c[nH]c3ccccc23)NC(=O)[C@@H]2Cc3ccccc3CN2)cc1 [MLS8554] | reduced expression of IE2, UL44, UL84 and pp65 |  |  |  | 86 | 0.55 ± 0.02 | 
CC(C)NC(=O)C1CCN(C(=O)c2cc3sccc3n2Cc2ccc(Cl)cc2)CC1 [NCGC2955, 1-(4-(4-chlorobenzyl)-4H-thieno[3,2-b]pyrrole-5-carbonyl)-N-isopropylpiperidine-4-carboxamide] | strong reduction in viral protein expression including IE1 and IE2 |  | > 200 |  |  |  | 1.4 ± 0.2
